Data reported in patent publication EP3272330A1, “COMPOSITION AND COSMETIC METHOD FOR REDUCING CELLULITE BLEMISHES” (Italfarmacia S.r.l., priority 2016, dated 2018).

Tests used:
[1] = hydrophilic/lipophilic ratio; cited from earlier work
adipose tissue = assay: Clinical study: histological analysis of adipose tissue after subcutaneous injection into areas with localized cellulite; assay type: in vivo, patient; settings: surfactant added to ascorbate composition
Experimental: Step (c) Ten ml of diluents solution were used to reconstitute the mixture of sodium ascorbate and sodium chloride. Cosmetic Treatment: 5 ml of reconstituted solutions were given by subcutaneous injection into local areas with localized cellulite; lipolytic effect, adverse reactions and necrosis were evaluated by histological analysis.
The cosmetic treatment using the composition according to the invention was administered to a group of subjects who were well informed of the procedure; all gave their consent to the use of the results of the study for obtaining a patent grant. […]
A more specific and in-depth observation of the lower limbs was first made to assess, visually, the presence, location and extent of the irregularities of skin surface typical of cellulite. […] By photographic, thermographic and ultrasound instrumental investigations, the condition of each subject have been determined and classified according to a cellulite evaluation scale, ad hoc elaborated for the present study: • grade 0: exempt subjects; • grade 1: local skin rupture, characterized by few presence of irregular skin surface (madras skin or mattres phenomenon) with pit shaped introflexions; • grade 2: generalized skin rupture (skin roughness or orange peel skin). […]

adipocytes = settings: concentration of 0.06% (3.3 mM); Gao Yan et al. 2009; cited from earlier work
[2] = also printed as 0.0176% to 0.176%; Sakagami H. et al. 1996; cited from earlier work

Row | Compound | HLB [1] | ability of surfactants to determine the improvement of the lipolytic action of ascorbic acid salt (adipose tissue) | apoptotic damage and adipocytes decrease (adipocytes) | concentration range to induce an apoptotic effect [2] [mM]
1 | CCCCCCCCCCCCCCCC(=O)OC[C@H](O)[C@H]1OC(=O)C(O)=C1O [Ascorbyl Palmitate, ascorbyl palmitate] | HLB: 4-5 | particularly effective |  | 
2 | Polysorbate 80 | HLB: 10-12 |  |  | 
3 | CCCCCCCC/C=C\CCCCCCCC(=O)OCC(O)CO (stereo not drawn) [Glyceryl monooleate] | HLB: 2-3 |  |  | 
4 | O=C1O[C@H]([C@@H](O)CO)C(O)=C1O [ascorbic acid] |  |  | ineffective | 1 to 10
